# Experiments:
# MCF-7 = experiment: MTT anti-proliferative assay on MCF-7; type: cell-based, human; details: MTT, 48 hours treatment, mean ± SD (n = 2)
# Description: (§1) All synthesized molecules were tested for their anticancer activity using the MTT assay protocol against the murine mammary carcinoma cell line (4T1), the human breast cancer (MCF-7), and the prostatic small cell carcinoma (PC-3). These compounds were then assessed for their IC50 determination at various concentrations. According to this finding, all synthesized compounds have the ability to inhibit the proliferation of a variety of cancer cell lines. […] It is more biased for MCF-7 cells over other cancer cells tested. Further, we contemplated conducting additional research to assess their anti-cancer effectiveness and mechanism (Fig. 3).
# (§2) The mouse triple-negative breast cancer cell line (4T1), a human luminal A breast cancer cell line (MCF-7), a human prostate cancer cell line (PC-3), and a normal human embryonic kidney cell line (HEK-293) were procured from the National Center for Cell Science (NCCS, Pune, India). Dulbecco's Modified Eagle Medium (DMEM) (Himedia Laboratories Pvt Ltd, Mumbai, India) was used to cultivate MCF-7, 4T1, PC-3, and HEK-293 cells. All the mentioned cell lines were cultured in Dulbecco's Modified Eagle Medium (DMEM) supplemented with 10% heat-inactivated fetal bovine serum (Himedia Laboratories Pvt Ltd, Mumbai, India) and 1% antibiotic (Pen strep: A001), Himedia Laboratories Pvt Ltd, Mumbai, India. Cells were grown in a humidified environment with 5% CO2 at 37 °C. The experiment was performed using the yellow dye MTT [3-(4,5-dimethylthiazol-2-yl)-2, 5-diphenyltetrazolium bromide].
# (§3) The MTT assay protocol was used to determine the IC50 values of the final compounds against different types of cancer cell lines and their selectivity over normal human cell lines. Dilutions of various concentrations were made from the compounds' DMSO stock solutions in the appropriate media. With a control solution of less than 1% DMSO in the appropriate media, dilutions from 200 μM to 0.781 μM concentrations were prepared using the serial dilution method. Cells were subcultured in their respective complete media according to the ATCC protocol before being seeded on a sterile 96-well plate with around 100 μL per well and a cell density of about 1 × 10^4 cells per well and incubated overnight. The medium was aspirated the following day, and adherent cells were treated with the respective concentrations 200 μM to 0.781 μM. The cells were then cultured for 48 hours in presence of compounds in the growth medium. The medium was aspirated post-treatment, and 100 μL of a 5 mg mL^−1 MTT solution in phenol red-free media was added. This mixture was then incubated for around 3 hours to check for the production of formazan crystals. The MTT solution was withdrawn, and 150 μL of DMSO was added to the wells to dissolve the generated crystals. The absorbance was measured at 570 nm and 650 nm. The percent cell viability was calculated for the IC50 values using GraphPad Prism™ version 8.0.1, and the results were shown as a dose–response curve.
# 4T1 = experiment: MTT anti-proliferative assay on 4T1; type: cell-based, mouse; details: Mus musculus, 4T1; MTT, 48 hours treatment, mean ± SD (n = 2)
# Description: as §1, §2, §3
# PC-3 = experiment: MTT anti-proliferative assay on PC-3; type: cell-based, human; details: Homo sapiens, PC-3; MTT, 48 hours treatment, mean ± SD (n = 2)
# Description: as §1, §2, §3
# HEK-293 = experiment: MTT cytotoxicity on normal HEK-293 cells; type: cell-based; details: Homo sapiens, HEK293, normal cell line, 48 hours treatment, mean ± SD (n = 2)
# Description: We also investigated their in vitro cytotoxicity against a normal human embryonic kidney (HEK-293) cell line to determine their IC50.
# as §2, §3
# MCF-7 cells [1] = experiment: Annexin-V/FITC-PI apoptosis assay (flow cytometry); type: cell-based, human; details: MCF-7, 48 h, at in vitro IC50
# Description: Several studies have reported that anticancer drug molecules employ their cytotoxicity induced cell death via apoptotic pathways. […] These findings imply that the programmed cell death mechanism generated by the lead compound 2g causes considerable apoptosis in cancer cells.
# In MCF-7 cells, an apoptosis assay was done using a TACs/Annexin V kit from Biolegend, USA. MCF-7 cells were seeded with a density of 5.0 × 10^4 cells per well in a flat-bottomed 12-well plate and allowed overnight for attachment. Following media aspiration, 48 hours of treatment with compound 2g and BG-45 at their in vitro IC50 values in MCF-7 cells were performed in triplicate. The cells were then trypsinized after being rinsed twice with ice-cold PBS. The trypsinized cells were then collected, centrifuged, and the obtained cell pellet was washed with ice-cold PBS before being resuspended in 100 μL of freshly prepared Annexin V reagent, which included 10 μL of 10× binding buffer, 1 μL of FITC, 10 μL of PI, and made up to 100 μL with double distilled water. Following a 30 minutes dark incubation period, these samples were diluted to 500 μL using 400 μL of 1× binding buffer. Following incubation, the samples were examined using flow cytometry (BDAria™ III, BD biosciences).
# MCF-7 cells [2] = experiment: Cell cycle analysis (PI, flow cytometry); type: cell-based, human; details: MCF-7, 48 hours, at IC50 concentration
# Description: In addition to the apoptosis assay, the cell cycle progression of MCF-7 cells was also investigated using the compound 2g. The cell population at different cell cycle phases was assessed using flow cytometry. […] These findings highlight that the lead compound 2g specifically impacts cell cycle regulation in the early phase compared to control and standard compound-treated cells (Fig. 6).
# Flow cytometry was used to study the cell cycle of compound 2g and BG-45 using the BDAria™ III, a BD biosciences equipment, and the data was processed using Flow Jo software. For this objective, 5.0 × 10^4 MCF-7 cells were seeded onto 12 well plates and incubated overnight. The media was aspirated the other day, and the treatment was continued for another 48 hours after adding the required concentrations of compound 2g and BG-45 to the aspirated media. Following the treatment, the sample wells were rinsed with ice-cold PBS, trypsinized, and collected as a cell pellet. After two ice-cold PBS washes, the pellet was fixed with a dropwise addition of 70% ice-cold ethanol, which was then gently vortexed to create a single-cell suspension. Overnight, the fixed cells were stored at −20 °C. The samples were then centrifuged, and the resulting cell pellet was resuspended in 500 μL of the staining solution made from 20% w/v RNase, 2% w/v PI, and roughly 0.1% v/v Triton X 100 solution in PBS. The dissolved samples were examined using flow cytometry in the BDAria™ III, BD Biosciences, after being incubated for 30 min at room temperature in the dark.
# MCF-7 cells [3] = experiment: Intracellular ROS generation (DCFH-DA); type: cell-based, human; details: MCF-7, 48 h, IC50 dose
# Description: This can result from the increased metabolic demands of rapidly dividing cancer cells and mitochondrial dysfunction. Elevated ROS levels can also damage DNA, contributing to genomic instability and the development of genetic mutations that drive cancer progression. Chemotherapy drugs, for example, can generate ROS as a byproduct of their mechanism of action, causing increase DNA damage and cell death in cancer cells. As a result, we investigated whether the compound 2g could cause ROS production within cancer cells.
# The generation of reactive oxygen species in MCF-7 cells was investigated using the 2-7-dichlorodihydroflourescein diacetate (DCFH-DA) assay. The non-fluorescent DCFH-DA enters the cells, where cellular esterase cleaves off the acetyl groups to produce DCFH. ROS transform the molecule from DCFH to DCF, which produces green light. […] Following incubation, old medium was removed, and cells were treated with 10 μM DCFH-DA (S0033-Beyotime) in accordance with the recommended technique for 10 min at 37 °C in complete darkness. The intensity of fluorescence was then measured with a Laser Scanning Confocal Microscope (LSCM) DMI8 (Leica Microsystems, Germany) at 63× magnification at 485 nm and 535 nm for excitation and emission wavelengths. […] In the meantime, the increase in fluorescence intensity was determined in comparison to the control. Image J was used to calculate the relative fluorescence intensity (%). One-way ANOVA was used to determine significance, and the graph was created in GraphPad Prism™ version 8.0.1.
"IC50 (MCF-7; Homo sapiens, MCF7, 48 h)",IC50 (MCF-7),IC50 (4T1),IC50 (PC-3),melting point,SMILES,IC50 (HEK-293),total apoptotic percentage (Q2 and Q4) (MCF-7 cells [1]),cell population in G0/G1 phase (MCF-7 cells [2]),cell population in G2/M phase (MCF-7 cells [2]),cell population in S phase (MCF-7 cells [2]),"Fluorescence intensity (DCFH-DA, ImageJ) (MCF-7 cells [3])"
8.19 ± 0.12 µM,,28.78 ± 0.19 µM,11.7 ± 0.16 µM,,FC(F)(F)c1c(-c2ccccc2)noc1-c1cccs1 [Compound 2c],98.76 ± 0.24 µM,,,,,
10.6 ± 0.19 µM,,37.18 ± 0.22 µM,15.59 ± 0.14 µM,,FC(F)(F)c1c(-c2cccc3ccccc23)noc1-c1cccs1 [Compound 2d],111.8 ± 0.17 µM,,,,,
5.48 µM,5.48 ± 0.14 µM,23.5 ± 0.21 µM,11.6 ± 0.14 µM,66 to 70 °C,FC(F)(F)c1c(-c2cccs2)noc1-c1ccco1 [Compound 2e],94.55 ± 0.2 µM,,,,,

# Further lines, the compound ahead of its results:
SMILES,"IC50 (MCF-7; Homo sapiens, MCF7, 48 h)",IC50 (MCF-7),IC50 (4T1),IC50 (PC-3),melting point,IC50 (HEK-293),total apoptotic percentage (Q2 and Q4) (MCF-7 cells [1]),cell population in G0/G1 phase (MCF-7 cells [2]),cell population in G2/M phase (MCF-7 cells [2]),cell population in S phase (MCF-7 cells [2]),"Fluorescence intensity (DCFH-DA, ImageJ) (MCF-7 cells [3])"
"Nc1ccccc1NC(=O)c1cnccn1 [BG-45, reference compound]",43.6 µM,43.55 ± 0.18 µM,59.14 ± 0.17 µM,28.67 ± 0.14 µM,,144.56 ± 0.14 µM,16.4 ± 1.1%,63.6%,24.4%,14.2%,18.02
FC(F)(F)c1c(-c2ccccc2)noc1-c1ccccc1 [Compound 2a],11.3 µM,11.3 ± 0.13 µM,37.83 ± 0.2 µM,16.14 ± 0.15 µM,60 to 65 °C,114.9 ± 0.15 µM,,,,,
FC(F)(F)c1c(-c2cccs2)noc1-c1ccccc1 [Compound 2b],9.76 µM,9.76 ± 0.09 µM,35.36 ± 0.19 µM,13.6 ± 0.17 µM,65 to 69 °C,103.3 ± 0.17 µM,,,,,
